The text below walks through data of US5808144A, “Benzene derivatives” (Teijin Limited, priority 1995, dated 1998).

For orientation: inhibition means the relative decrease from the control value, in per cent. As usually defined, the IC50 is the midpoint of a concentration-inhibition curve.

Structures are written as SMILES. Some results are limits rather than exact numbers.

One experiment relates to human IgG antibody. Briefly: Human IgG antibody production-inhibiting activity in vitro (lymphocytes + IL-4 + anti-CD40 Ab + IL-10, sandwich ELISA). The following applies: Lymphocyte; for inhibition at 0.1 µM: 100 nM (0.1 μM), vs. no compound; for IC50: IgG antibody production. The format is cell-based. On the procedure: (§1) Measurement of human IgE antibody production-inhibiting activity in vitro
(§2) In accordance with the following method established with reference to The Journal of Immunology (J. Immunol.), Vol. 146, 1836 to 1842 (1991) and the Journal of Immunology (J. Immunol.), Vol. 147, 8 to 13 (1991), the concentrations of IgE and […], when the compounds of the present invention shown in Table 12 were employed, were measured.
(§3) Peripheral venous blood gathered from a healthy person was subjected to a density-gradient centrifugation to isolate lymphocytes therefrom. The isolated lymphocytes were washed and suspended in a culture medium liquid (RPMI-1640 (made by Gibco Co.)+10% heat-inactivated FCS (made of Whittaker Co.)+100 μg/ml streptomycin+100 U/ml penicillin G+2 mM L-glutamine). The lymphocytes in the suspension were cultured for one week in the presence or non-presence of the above-mentioned compounds and in the presence of an interleukin 4 (IL-4, made by GENZYME CO.) (0.1 mg/ml), an anti-CD 40 antibodies (anti CD 40 Ab, made by BIOSOURCE CO., clone B-B20) (0.2 mg/ml), and an interleukin 10 (IL-10, made by GENZYME CO.) (0.2 mg/ml). To this culture system, the same culture medium liquid as mentioned above was supplemented, and then the culture was further carried out for one week. Thereafter, the concentrations of IgE antibodies and IgG antibodies in the supernatant of the culture mixture were measured by a sandwich ELISA method. In the measurement by the ELISA method, the concentration of the IgE antibodies was determined by using a primary antibody consisting of a rabbit anti-human IgE (ε) antibody (made by IGN Co.) and a secondary antibody consisting of biotin-anti-human IgE monoclonal antibody (G7-26, made by Phar Mingen Co.), and the concentration of IgG antibodies was determined by using a primary antibody consisting of anti-human IgG monoclonal antibody (G18-145, made by Phar Mingen Co.) and a secondary antibody consisting of biotin-donkey anti-human IgG antibody (H+L), made by Jackson Co.). Also, in the measurement of IgE and IgG antibody concentrations, as an enzyme, an Avidin-Biotin-HRP (Avidin-Biotin-Horse Radish Peroxidase; ABC kit, made by Vector Lab.) was used and as a substrate, TMB (3,3', 5,5'-tetramethylbenzidine) Microwell Peroxidase Substrate System (made by Kirkegaad & Perry Laboratories Inc.) was used.
(§4) On the basis of each antibody concentration when the compound of the present invention was not present, each antibody production-inhibition (%) in a concentration of the compound to be tested of 0.1 μM was calculated. Further, with respect to some of the compounds tested, the antibody production-inhibitions (%) of the tested compounds were measured in various concentrations thereof, and IC 50 values thereof were calculated. (Refer to Uejima et al., American Academy of Allergy & Immunology, Proceeding of 1995 Annual Meeting, Program No. 818).

The test system of the next experiment is human IgE antibody. Briefly: Human IgE antibody production-inhibiting activity in vitro (lymphocytes + IL-4 + anti-CD40 Ab + IL-10, sandwich ELISA). The following applies: Lymphocyte; for inhibition at 0.1 µM: 100 nM (0.1 μM), vs. no compound; for IC50: IgE antibody production. Format: cell-based. On the procedure: as §1, §2, §3, §4
For orientation: An ELISA detects its analyte on a solid surface through an enzyme-linked reagent.

The next experiment deals with anti-TNP IgE. Briefly: IgE antibody production-inhibiting performance on TNP-sensitive mice: serum anti-TNP IgE (ELISA). To be noted: serum day 11, vehicle 433 ± 118. The format is in vivo, mouse. On the procedure: (§5) Measurement of IgE antibody production-inhibiting performance on TNP-sensitive mice
(§6) TNP-KLH (2 μg/head) and Alum (1 mg/head) were dosed into the abdominal cavities of 8-week-old male mice to sensitize the mice.
(§7) Compound No. 14 was suspended in a concentration of 1.0 mg/ml, 3.0 mg/ml or […] in an aqueous 5% gum arabi solution, and each suspension was perorally dosed to three groups of mice for medication, to which each medicine was dosed at a dosage of 10 ml/kg, (namely, 10 mg/kg, 30 mg/kg or 100 mg/kg), once a day continuously for 10 days from the sensitized day. For a vehicle mouse group, the above-mentioned aqueous gum arali solution was dosed in the same amount as mentioned above in the same manner as mentioned above.
(§8) On the day after the final dosing day (the eleventh day), blood was extracted from the heart of the mouse, and a TNP specific antibody value of a blood serum obtained from the extracted blood was measured in accordance with ELISA method.

The subject of the next experiment is anti-TNP IgG. Briefly: TNP-sensitive mice: serum anti-TNP IgG (ELISA). The format is in vivo, mouse. The following applies: serum day 11, vehicle 4390 ± 2630. As for the experimental part: as §5, §6, §7, §8
A further experiment relates to anti-TNP IgM. Nature of the experiment: TNP-sensitive mice: serum anti-TNP IgM (ELISA). The format is in vivo, mouse. To be noted: serum day 11, vehicle 110 ± 9. As for the experimental part: as §5, §6, §7, §8
The mark [1] stands for this setting: 10 mg/kg p.o. once a day for 10 days.
Setting [2] is: 100 mg/kg p.o. once a day for 10 days, ** p < 0.01 vs. vehicle.
[3] abbreviates: 30 mg/kg p.o. once a day for 10 days.

With `CC(C)Oc1ccc(Oc2ccc(CC(=O)Nc3ccccc3C(=O)O)cc2)cc1` [compound 18, 2-(4-(4-isopropyloxyphenoxy)phenylacetamido)benzoic acid], the inhibition at 0.1 µM with human IgG antibody is -1.7%; in the experiment with human IgE antibody, 19.5%.

`O=C(Nc1ccccc1C(=O)O)c1ccc(Oc2ccc(OC3CCCCCCC3)cc2)cc1` [compound 22, 2-(4-(4-cyclooctyloxyphenoxy)benzamido)benzoic acid]: the inhibition at 0.1 µM in the experiment on human IgG antibody is -33.2%; in the experiment with human IgE antibody, 51%.

For the compound `O=C(Cc1ccc(Oc2ccc(OC3CCCCCCC3)cc2)cc1)Nc1ccccc1C(=O)O` [Compound No. 14, 2-(4-(4-cyclooctyloxyphenoxy)phenylacetamido)benzoic acid], the inhibition at 0.1 µM stood at 93.8% in the experiment with human IgG antibody and 100% in the experiment with human IgE antibody. Further, the IC50 was determined as 12 nM in the experiment with human IgG antibody and 6 nM in the experiment on human IgE antibody. For the same compound, the “anti-TNP IgE” value worked out at 127 ± 72 ng/mL in the experiment on anti-TNP IgE (setting [1]); 52 ± 30 ng/mL in the experiment on anti-TNP IgE (30 mg/kg p.o. once a day for 10 days, ** p < 0.01 vs. vehicle); 0.2 ± 0.4 ng/mL in the experiment with anti-TNP IgE (setting [2]). Moreover, the “anti-TNP IgG” value in the experiment on anti-TNP IgG (setting [1]) is 2980 ± 2310 ng/mL; in the experiment with anti-TNP IgG (setting [3]), 2500 ± 1700 ng/mL; with anti-TNP IgG (setting [2]), 16 ± 18 ng/mL. Further, the “anti-TNP IgM” value with anti-TNP IgM (setting [1]) was 79 ± 40 µg/mL; in the experiment on anti-TNP IgM (setting [2]), 20 ± 5.0 µg/mL. The “anti-TNP IgM (μg/ml)” value in the experiment on anti-TNP IgM (setting [3]) is 73 ± +26 μg/ml.

On to `O=C(Cc1ccc(Oc2ccc(OCc3ccccc3)cc2)cc1)Nc1ccccc1C(=O)O` [Compound No. 4, 2-(4-(4-benzyloxyphenoxy)phenylacetamido)benzoic acid], for which, in the experiment on human IgG antibody, the inhibition at 0.1 µM is 100% and the IC50 is 200 nM. In the experiment with human IgE antibody, the inhibition at 0.1 µM is 100% and the IC50 was determined as 28 nM.

For the compound `CCC(CC)Oc1ccc(Oc2ccc(CC(=O)Nc3ccccc3C(=O)O)cc2)cc1` [compound 20, 2-(4-(4-(3-pentyloxy)phenoxy)phenylacetamido)benzoic acid], the inhibition at 0.1 µM stood at 52.6% in the experiment on human IgG antibody and 100% in the experiment with human IgE antibody. In addition, the figures for the IC50 in the experiment with human IgG antibody and with human IgE antibody were more than 100 nM and 35 nM, respectively.

For the compound `O=C(Cc1ccc(Oc2ccc(OC3CCCCC3)cc2)cc1)Nc1ccccc1C(=O)O` [Compound No. 8, 2-(4-(4-cyclohexyloxyphenoxy)phenylacetamido)benzoic acid], the inhibition at 0.1 µM in the experiment on human IgG antibody was 40.6%; with human IgE antibody, 95.5%. For the same compound, the IC50 in the experiment with human IgG antibody came to 50 nM; in the experiment on human IgE antibody it was 17 nM.

Consider `O=C(Cc1ccc(Oc2ccc(OC3CCCC3)cc2)cc1)Nc1ccccc1C(=O)O` [compound 12, 2-(4-(4-cyclopentyloxyphenoxy)phenylacetamido)benzoic acid], for which the inhibition at 0.1 µM with human IgG antibody worked out at 95.8%; with human IgE antibody it was 100%. In addition, the values for the IC50 in the experiment with human IgG antibody and with human IgE antibody were more than 100 nM and 44 nM, respectively.

On to `O=C(Nc1ccccc1C(=O)O)c1ccc(Oc2ccc(O)cc2)cc1` [compound 30, 2-(4-(4-hydroxyphenoxy)benzamido)benzoic acid], for which the inhibition at 0.1 µM is -31.7% with human IgG antibody and 25.7% with human IgE antibody.

Regarding `O=C(Cc1ccc(Oc2ccc(OC3CCCCCCCCCCC3)cc2)cc1)Nc1ccccc1C(=O)O` [compound 16, 2-(4-(4-cyclododecanyloxyphenoxy)phenylacetamido)benzoic acid], in the experiment on human IgG antibody, the inhibition at 0.1 µM was 95.8% and the IC50 amounted to 46 nM. In the experiment with human IgE antibody, the inhibition at 0.1 µM was 100% and the IC50 amounted to 22 nM.
